This experiment deals with 5×FAD mice. Nature of the experiment: ABETA Mab1 i.p. in 5×FAD mice with intact or ablated meningeal lymphatics: Aβ plaques, LAMP1, IBA1, CD68, fibrinogen. The format is in vivo, mouse. As for the experimental part:
Upon recovery, mice received intraperitoneal (i.p.) injections of ABETA Mab1 (a murine antibody against Aβ protofibrils) or the control murine IgG (mIgG) antibodies, each at a dose of 40 mg/kg. Antibodies were injected weekly for a total of four weeks. Additional steps of meningeal lymphatic vessel ablation or control interventions were followed by four weekly injections with antibodies. Mice were tested in the open field and Morris water maze.
In another set of experiment 5×FAD mice of 3-3.5 months-old were injected (i.p.) with anti-Abeta antibody (ABETA Mab1) or mIgG (each at 40 mg/kg) following the exact same treatment regimen (FIG. 10A).
Treatments with anti-Aβ monoclonal antibodies. ABETA Mab1 and respective control IgG2a (mIgG) antibodies were manufactured by Absolute Antibody Ltd., Oxford Centre for Innovation, United Kingdom. Anti-Aβ monoclonal antibodies and respective mIgG controls were administered via intraperitoneal (i.p.) injection, at a dose of 40 mg/kg. Antibody dosages are also specified in the main text, illustrated in schemes and in each figure legend. Alternatively, ABETA Mab1 and mIgG antibodies were injected directly into the CSF, following the methodology described in the next section.
Meningeal lymphatic vessel ablation. Selective ablation of the meningeal lymphatic vessels was achieved by injection of Visudyne (Vis.) and consecutive transcranial photoconversion (photo.) steps following previously described methodology and regimens (Da Mesquita, S. et al. Functional aspects of meningeal lymphatics in ageing and Alzheimer's disease. Nature 560, 185-191, (2018); Louveau, A. et al. CNS lymphatic drainage and neuroinflammation are regulated by meningeal lymphatic vasculature. Nat Neurosci 21, 1380-1391, (2018)). Visudyne was reconstituted following manufacturer instructions, aliquoted and kept at −20° C. until further used. […] Each spot was irradiated with a light dose of 50 J/cm^2 at an intensity of 600 mW/cm^2 for a total of 83 s. […]
Immunohistochemistry, imaging and quantifications. […]

Setting [1] is: 5×FAD mice with reduced meningeal lymphatic drainage.

As to verteporfin [Visudyne], the “brain coverage by LAMP1+ dystrophic neurites” value (5×FAD mice with dysfunctional versus intact meningeal lymphatics) is “significantly increased”. Further, under setting [1], the “fibrinogen levels in the brain” value is given as “increased fibrinogen levels” and the “myeloid cell activation (IBA1+ coverage, peri-Aβ plaque IBA1+ cells, CD68 on IBA1+ cells)” value is “aberrant activation of myeloid cells”.

(Values after US20230067811A1, “MODULATING LYMPHATIC VESSELS IN NEUROLOGICAL DISEASE” (University of Virginia Patent Foundation, priority 2020, published 2023).)
